Columns and labels:
Assay in all cases: relative viability (nuclei count vs DMSO), 5 days (fraction); higher = more cells survive
[1] = compound: C1COCCN1CC2=CC(=O)C(=CO2)OCCCCCSC3=C4C=CC(=CC4=NC=C3)C(F)(F)F [EHT 1864] + CS(=O)(=O)CCNCc1ccc(-c2ccc3ncnc(Nc4ccc(OCc5cccc(F)c5)c(Cl)c4)c3c2)o1 [Lapatinib] (partner 2 µM)
Procedure, shortened: (§1)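 Nuclei were stained with Hoechst during a one-step fixation (final 0.05% Triton X-100, 1% formaldehyde, 1 ug/ml Hoechst) carried out 5 days after dosing, then counted on 4× images. The cells, lung cancer lines in 1536-well plates, had been dosed by pin tool the day after seeding with one drug alone or a fixed anchor-drug dose plus five library-drug doses (not always all listed) in √10 steps. Relative viability is the nuclei count in treated wells divided by that in vehicle wells, and each value is the median of duplicate plates.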

[2] = compound: C1COCCN1CC2=CC(=O)C(=CO2)OCCCCCSC3=C4C=CC(=CC4=NC=C3)C(F)(F)F [EHT 1864] + C[C@@H](Oc1cc(-c2cnn(C3CCNCC3)c2)cnc1N)c1c(Cl)ccc(F)c1Cl [Crizotinib] (partner 1 µM)
Procedure, shortened: as §1

[3] = compound: C1COCCN1CC2=CC(=O)C(=CO2)OCCCCCSC3=C4C=CC(=CC4=NC=C3)C(F)(F)F [EHT 1864] + Cc1cc(Nc2cc(N3CCN(C)CC3)nc(Sc3ccc(NC(=O)C4CC4)cc3)n2)n[nH]1 [Tozasertib] (partner 0.1 µM)
Procedure, shortened: as §1

[4] = compound: C1COCCN1CC2=CC(=O)C(=CO2)OCCCCCSC3=C4C=CC(=CC4=NC=C3)C(F)(F)F [EHT 1864] + Nc1ncn([C@H]2C[C@H](O)[C@@H](CO)O2)c(=O)n1 [Decitabine] (partner 2 µM)
Procedure, shortened: as §1

| Cell Line | relative viability ([1]; first compound 0.04 µM) | relative viability ([1]; first compound 0.4 µM) | relative viability ([1]; first compound 1.265 µM) | relative viability ([1]; first compound 4 µM) | relative viability ([2]; first compound 0.04 µM) | relative viability ([2]; first compound 0.4 µM) | relative viability ([2]; first compound 1.265 µM) | relative viability ([2]; first compound 4 µM) | relative viability ([3]; first compound 0.04 µM) | relative viability ([3]; first compound 0.1265 µM) | relative viability ([3]; first compound 0.4 µM) | relative viability ([3]; first compound 1.265 µM) | relative viability ([3]; first compound 4 µM) | relative viability ([4]; first compound 0.04 µM) | relative viability ([4]; first compound 0.1265 µM) | relative viability ([4]; first compound 0.4 µM) | relative viability ([4]; first compound 1.265 µM) | relative viability ([4]; first compound 4 µM) | relative viability ([1]; first compound 0.1265 µM) | relative viability ([2]; first compound 0.1265 µM) |
| --- | --- | --- | --- | --- | --- | --- | --- | --- | --- | --- | --- | --- | --- | --- | --- | --- | --- | --- | --- | --- |
| HCC-366 | 1.02 | 0.929 | 1.04 | 0.992 | 0.434 | 0.423 | 0.554 | 0.487 | 0.13 | 0.168 | 0.0914 | 0.0579 | 0.0542 | 0.338 | 0.324 | 0.331 | 0.333 | 0.326 | – | – |
| HCC-827 | 0.233 | 0.219 | 0.164 | 0.191 | 0.963 | 0.931 | 0.844 | 0.921 | 0.415 | 0.348 | 0.408 | 0.449 | 0.4 | 0.332 | 0.291 | 0.319 | 0.399 | 0.317 | 0.204 | 0.759 |
| HOP-62 | 1.07 | 1.01 | 1.09 | 1.18 | 0.944 | 0.952 | 0.784 | 0.996 | 0.391 | – | 0.376 | 0.333 | 0.374 | 0.225 | – | 0.202 | 0.241 | 0.246 | – | – |
| IA-LM | 0.704 | 0.74 | – | 0.622 | 1.01 | 0.754 | – | 0.684 | – | – | – | – | – | – | – | – | – | – | – | – |
| LC-2-ad | 0.993 | 0.954 | 0.904 | 0.835 | 0.493 | 0.432 | 0.526 | 0.564 | 0.483 | – | 0.516 | 0.391 | 0.487 | 0.783 | 0.733 | 0.762 | 0.773 | 0.755 | – | 0.454 |
| LCLC-97TM1 | 1.03 | 0.527 | 1.22 | 1.12 | 0.399 | 0.42 | 0.442 | 0.285 | 0.289 | 0.196 | 0.181 | 0.19 | 0.227 | 0.271 | 0.237 | 0.22 | 0.235 | 0.271 | – | – |
| LCLC-103H | – | – | – | – | 1.15 | 1.02 | 1.05 | 1.01 | 0.455 | 0.305 | 0.543 | 0.441 | 0.475 | 0.734 | 0.67 | 0.744 | 0.708 | 0.66 | – | 1.03 |
| LK-2 | 1.05 | 0.911 | 1.03 | 0.881 | 0.232 | 0.225 | 0.241 | 0.221 | 0.162 | – | 0.169 | 0.198 | 0.164 | 0.292 | 0.312 | 0.169 | 0.333 | 0.265 | 0.797 | 0.23 |
| LOU-NH91 | 0.769 | 0.802 | 0.81 | 0.797 | 0.764 | 0.741 | 0.733 | 0.758 | 0.614 | 0.551 | 0.67 | 0.609 | 0.69 | 0.793 | 0.754 | 0.842 | 0.804 | 0.754 | 0.746 | 0.73 |
